Reference: US9120808B2 (NABRIVA THERAPEUTICS AG, priority 2009, dated 2015)
pIC50: −log10 of the molar value.

Assays:
TEM-1 β-lactamase = TEM-1 β-lactamase (Escherichia coli, UniProt P62593); assay: Cell-free β-lactamase inhibition study (nitrocefin hydrolysis); format: biochemical; conditions: 10 min pre-incubation at 37° C., nitrocefin substrate
Protocol: (§1) Cell-Free-β-Lactamase Inhibition Study
(§2) Assays are performed with β-lactamases expressed in the pET system (Novagen, San Diego, Calif.) without signal peptides. They contain an N-terminal hexa-Histidine tag that is used for purification on Ni-NTA (Qiagen, Hilden, Germany). The compounds are prepared as 50 mM stocks in DMSO and diluted into buffer P1 (50 mM phosphate, pH 7) to a final concentration of 10% DMSO. All further dilutions are done in P2 (P1 with 10% DMSO). Enzyme and compound dilutions are pre-incubated for 10 min at 37° C. and the reaction is started with the addition of pre-warmed (37° C.) nitrocefin at a final concentration of […]. […] The initial velocity is determined and IC50 values are calculated using non-linear regression and sigmoidal dose response analysis with the PRISM 4.0 software (Graphpad Software Inc., San Diego, Calif.).

SHV-1 β-lactamase = SHV-1 β-lactamase (Klebsiella pneumoniae, UniProt P0AD64); assay: as above; format: biochemical; conditions: SHV-1; 10 min pre-incubation at 37° C., nitrocefin substrate; read-out: IC50
Protocol: as §1, §2

SHV-1 β-lactamase, sequence (P0AD64 whole entry, looked up): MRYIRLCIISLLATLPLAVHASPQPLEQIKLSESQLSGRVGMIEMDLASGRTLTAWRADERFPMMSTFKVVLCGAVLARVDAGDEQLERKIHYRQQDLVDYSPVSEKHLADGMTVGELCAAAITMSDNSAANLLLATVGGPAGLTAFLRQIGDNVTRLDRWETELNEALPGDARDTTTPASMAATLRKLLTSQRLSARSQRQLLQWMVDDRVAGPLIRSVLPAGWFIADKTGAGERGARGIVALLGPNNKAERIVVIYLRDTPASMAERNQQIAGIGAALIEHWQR
TEM-1 β-lactamase, sequence (P62593 whole entry, looked up): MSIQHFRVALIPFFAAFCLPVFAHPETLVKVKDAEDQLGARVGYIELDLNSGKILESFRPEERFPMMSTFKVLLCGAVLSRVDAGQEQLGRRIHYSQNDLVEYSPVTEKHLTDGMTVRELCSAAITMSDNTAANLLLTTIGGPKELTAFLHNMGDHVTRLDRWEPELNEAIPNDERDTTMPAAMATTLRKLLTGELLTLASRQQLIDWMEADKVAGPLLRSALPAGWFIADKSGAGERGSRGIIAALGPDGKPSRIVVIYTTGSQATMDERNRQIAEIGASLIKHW

SMILES: C=CC/C(CO)=C1/O[C@@H]2CC(=O)N2C1C(=O)OCc1ccccc1 (stereo partly drawn) [Example 38a, (5R)-3-[1-Hydroxymethyl-but-3-en-(Z)-ylidene]-7-oxo-4-oxa-1-aza-bicyclo[3.2.0]heptane-2-carboxylic acid benzyl ester]
- pIC50 (TEM-1 β-lactamase): 5.71
- pIC50 (SHV-1 β-lactamase): 5.77

SMILES: O=C(OCc1ccccc1)C1C(=C(CO)C/C=C/c2ccccc2)O[C@@H]2CC(=O)N12 (stereo partly drawn) [Example 39, (5R)-3-(1-Hydroxymethyl-4-phenyl-but-3-enylidene)-7-oxo-4-oxa-1-aza-bicyclo[3.2.0]heptane-2-carboxylic acid benzyl ester]
- pIC50 (TEM-1 β-lactamase): 5.38
- pIC50 (SHV-1 β-lactamase): 5.25

SMILES: [N-]=[N+]=NCC1C/C(=C2\O[C@@H]3CC(=O)N3C2C(=O)OCc2ccccc2)C(=O)O1 (stereo partly drawn) [Example 48, (5R)-3-(5-Azidomethyl-2-oxo-dihydro-furan-3-ylidene)-7-oxo-4-oxa-1-aza-bicyclo[3.2.0]heptane-2-carboxylic acid benzyl ester]
- pIC50 (TEM-1 β-lactamase): 8.62
- pIC50 (SHV-1 β-lactamase): 8.38

SMILES: CCCC(C(=O)O)=C1O[C@@H]2CC(=O)N2C1C(=O)O (stereo partly drawn) [Example 51, (5R)-3-(1-Carboxy-butylidene)-7-oxo-4-oxa-1-aza-bicyclo[3.2.0]heptane-2-carboxylic acid]
- pIC50 (TEM-1 β-lactamase): 6.60
- pIC50 (SHV-1 β-lactamase): 6.36

SMILES: COC(=O)C1C(=C(CCCc2ccccc2)C(=O)O)O[C@@H]2CC(=O)N12 (stereo partly drawn) [Example 53, (5R)-3-(1-Carboxy-4-phenyl-butylidene)-7-oxo-4-oxa-1-aza-bicyclo[3.2.0]heptane-2-carboxylic acid methyl ester]
- pIC50 (TEM-1 β-lactamase): 7.14
- pIC50 (SHV-1 β-lactamase): 6.66

SMILES: CCCC(C(=O)O)=C1O[C@@H]2CC(=O)N2C1C(=O)OC (stereo partly drawn) [Example 54, (5R)-3-(1-Carboxy-butylidene)-7-oxo-4-oxa-1-aza-bicyclo[3.2.0]heptane-2-carboxylic acid methyl ester]
- pIC50 (TEM-1 β-lactamase): 7.01
- pIC50 (SHV-1 β-lactamase): 6.53

SMILES: COC(=O)C(CCCc1ccccc1)=C1O[C@@H]2CC(=O)N2C1C(=O)OC (stereo partly drawn) [Example 57, (5R)-3-(1-Methoxycarbonyl-4-phenyl-butylidene)-7-oxo-4-oxa-1-aza-bicyclo[3.2.0]heptane-2-carboxylic acid methyl ester]
- pIC50 (TEM-1 β-lactamase): 7.97
- pIC50 (SHV-1 β-lactamase): 7.65

SMILES: O=C(O)C(CC=CCN(Cc1ccccc1)C(=O)OCc1ccccc1)=C1O[C@@H]2CC(=O)N2C1C(=O)OCc1ccccc1 (stereo partly drawn) [Example 58, (5R)-3-[5-(Benzyl-benzyloxycarbonyl-amino)-1-carboxy-pent-3-enylidene]-7-oxo-4-oxa-1-aza-bicyclo[3.2.0]heptane-2-carboxylic acid benzyl ester]
- pIC50 (TEM-1 β-lactamase): 8.85
- pIC50 (SHV-1 β-lactamase): 9.22

SMILES: O=C(OCc1ccccc1)C1C(=C2COC(CI)C2)O[C@@H]2CC(=O)N12 (stereo partly drawn) [Example 59, (5R)-3-[5-Iodomethyl-dihydro-furan-3-ylidene]-7-oxo-4-oxa-1-aza-bicyclo[3.2.0]heptane-2-carboxylic acid benzyl ester]
- pIC50 (TEM-1 β-lactamase): 5.36
- pIC50 (SHV-1 β-lactamase): 5.44
